Experiments:
[1] = target: EGFR L858R/C797S Ba/F3 cells (Homo sapiens, UniProt P00533, C797S/L858R, cells depend on it); test: Ba/F3 cell proliferation (Cell Titer Glo), EGFR L858R/C797S; format: cell-based, murine; conditions: 72 hours exposure, read-out: L858R/C797S (μM), inhibitory activity against EGFR mutants
Description: (§1) The EGFR mutant L858R Ba/F3 cells have been previously described (Zhou, W., et al. Nature 462, 2009, 1070-1074). The EGFR C797S and C775S mutations were introduced via site directed mutagenesis using the Quick Change Site-Directed Mutagenesis kit into a vector containing EGFR L858R mutation (Stratagene; La Jolla, CA) according to the manufacturer's instructions. All constructs were confirmed by DNA sequencing. The constructs were then shuttled into the retroviral vector JP1540 by either using the Cre-recombination system (Agilent Technologies, Santa Clara, CA) or the In-fusion HD Cloning kit (Takara Bio USA, Inc.; Mountain view, CA). Ba/F3 cells were then infected with retrovirus per standard protocols, as described previously (Zhou, et al, Nature 2009). Stable clones were obtained by selection in puromycin (2 ug/ml). All BaF/3 mutant cells were maintained in RPMI 1640 (Cellgro; Mediatech Inc., Herndon, CA) supplemented with 10% FBS, 100 units/mL penicillin, 100 units/mL streptomycin.
(§2) Growth and inhibition of growth was assessed by the Cell Titer Glo assay (Promega, Madison, WI) and was performed according to the manufacturer's instructions. The Cell Titer Glo assay is a luminescence-based method used to determine the number of viable cells based on quantitation of the ATP present, which is directly proportional to the amount of metabolically active cells present. Ba/F3 cells of different EGFR genotypes were exposed to compounds for 72 hours and the number of cells used per experiment was determined empirically as has been previously established (Zhou, et al., Nature 2009). All experimental points were set up in triplicates in 384-well plates. […] The curves were fitted using a non-linear regression model with a sigmoidal dose response.
(§3) For inhibitory activity against EGFR mutants, the following designations are used: ≤0·25 μM=A, 0·25 μM˜0.5 μM=B, 0.5 μM˜2.5 μM=C, ≥2.5 μM=D.

[2] = target: EGFR mutant L858R Ba/F3 cells (Homo sapiens, UniProt P00533, L858R, cells depend on it); test: Ba/F3 cell proliferation (Cell Titer Glo), EGFR L858R; format: cell-based, murine; conditions: 72 hours exposure, read-out: L858R BaF3 (μM), inhibitory activity against EGFR mutants
Description: as §1, §2, §3

Chain of EGFR L858R/C797S Ba/F3 cells (P00533 whole entry C797S/L858R, the tested form may be a part): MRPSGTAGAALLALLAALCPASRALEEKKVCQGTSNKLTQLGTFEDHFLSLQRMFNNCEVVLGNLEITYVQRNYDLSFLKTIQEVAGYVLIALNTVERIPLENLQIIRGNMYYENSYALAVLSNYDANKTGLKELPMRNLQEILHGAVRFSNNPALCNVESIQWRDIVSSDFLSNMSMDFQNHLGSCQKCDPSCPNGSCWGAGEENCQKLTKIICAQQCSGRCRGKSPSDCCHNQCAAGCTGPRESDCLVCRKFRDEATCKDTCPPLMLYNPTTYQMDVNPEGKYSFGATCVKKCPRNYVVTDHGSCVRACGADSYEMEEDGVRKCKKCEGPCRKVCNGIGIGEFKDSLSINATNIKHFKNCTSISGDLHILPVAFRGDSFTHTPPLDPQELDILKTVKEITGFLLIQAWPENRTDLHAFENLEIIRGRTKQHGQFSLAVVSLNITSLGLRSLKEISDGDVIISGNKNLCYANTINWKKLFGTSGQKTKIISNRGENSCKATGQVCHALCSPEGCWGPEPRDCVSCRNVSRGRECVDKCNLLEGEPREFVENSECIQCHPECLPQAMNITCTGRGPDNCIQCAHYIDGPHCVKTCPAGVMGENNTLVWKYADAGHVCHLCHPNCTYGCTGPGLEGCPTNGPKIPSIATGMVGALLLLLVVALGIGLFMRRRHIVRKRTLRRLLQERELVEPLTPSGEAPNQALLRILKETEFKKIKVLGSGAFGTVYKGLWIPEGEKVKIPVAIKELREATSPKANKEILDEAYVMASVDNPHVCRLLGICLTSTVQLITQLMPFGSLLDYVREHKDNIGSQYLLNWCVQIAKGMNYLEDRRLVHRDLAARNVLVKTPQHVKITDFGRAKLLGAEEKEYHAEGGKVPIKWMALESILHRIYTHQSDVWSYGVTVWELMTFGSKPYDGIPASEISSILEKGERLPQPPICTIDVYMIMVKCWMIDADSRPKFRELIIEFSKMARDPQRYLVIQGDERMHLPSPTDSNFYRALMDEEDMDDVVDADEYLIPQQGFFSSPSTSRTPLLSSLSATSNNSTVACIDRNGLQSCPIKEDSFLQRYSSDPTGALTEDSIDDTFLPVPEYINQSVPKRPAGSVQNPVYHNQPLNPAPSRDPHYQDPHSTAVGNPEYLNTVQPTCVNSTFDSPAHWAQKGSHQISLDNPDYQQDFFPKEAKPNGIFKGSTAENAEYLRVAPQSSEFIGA
Chain of EGFR mutant L858R Ba/F3 cells (P00533 whole entry L858R): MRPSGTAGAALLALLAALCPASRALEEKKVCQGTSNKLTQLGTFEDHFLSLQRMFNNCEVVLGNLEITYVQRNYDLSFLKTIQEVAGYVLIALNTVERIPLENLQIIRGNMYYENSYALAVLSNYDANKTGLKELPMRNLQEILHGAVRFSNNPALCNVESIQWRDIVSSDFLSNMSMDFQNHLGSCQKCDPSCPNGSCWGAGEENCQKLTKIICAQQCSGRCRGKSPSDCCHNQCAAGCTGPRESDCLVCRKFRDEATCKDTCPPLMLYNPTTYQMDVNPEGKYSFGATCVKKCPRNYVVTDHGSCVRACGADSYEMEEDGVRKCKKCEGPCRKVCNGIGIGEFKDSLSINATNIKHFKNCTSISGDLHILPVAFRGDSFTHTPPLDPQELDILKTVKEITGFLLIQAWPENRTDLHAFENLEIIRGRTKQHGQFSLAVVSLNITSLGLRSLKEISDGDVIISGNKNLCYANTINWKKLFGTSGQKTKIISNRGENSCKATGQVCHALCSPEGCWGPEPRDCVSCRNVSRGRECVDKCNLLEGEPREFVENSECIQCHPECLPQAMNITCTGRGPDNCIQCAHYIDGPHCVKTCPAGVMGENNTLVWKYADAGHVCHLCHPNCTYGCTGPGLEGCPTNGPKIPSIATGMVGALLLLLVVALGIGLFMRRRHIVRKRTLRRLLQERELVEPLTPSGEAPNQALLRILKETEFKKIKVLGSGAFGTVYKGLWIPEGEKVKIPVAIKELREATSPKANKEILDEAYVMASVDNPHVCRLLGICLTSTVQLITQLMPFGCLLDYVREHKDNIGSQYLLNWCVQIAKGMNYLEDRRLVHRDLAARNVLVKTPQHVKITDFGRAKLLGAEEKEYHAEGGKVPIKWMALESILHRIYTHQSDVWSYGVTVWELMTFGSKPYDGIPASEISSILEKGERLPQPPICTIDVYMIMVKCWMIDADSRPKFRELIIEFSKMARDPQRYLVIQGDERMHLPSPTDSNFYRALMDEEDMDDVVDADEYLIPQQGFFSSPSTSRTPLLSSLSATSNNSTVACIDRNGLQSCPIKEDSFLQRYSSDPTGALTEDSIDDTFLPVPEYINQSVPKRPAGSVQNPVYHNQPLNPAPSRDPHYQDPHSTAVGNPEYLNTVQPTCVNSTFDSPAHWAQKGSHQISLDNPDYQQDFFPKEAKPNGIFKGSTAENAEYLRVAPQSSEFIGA

SMILES | GI50 [1] | GI50 [2]
C=CC(=O)N1CCN(c2cc3cnc(Nc4ccc(N5CCN(C)CC5)c(F)c4)nc3n(C)c2=O)c2cccc(C)c21 [Compound 040] | ≤ 0.25 µM | ≤ 0.25 µM
C=CC(=O)N1CCN(c2cc3cnc(Nc4cnn(CCS(C)(=O)=O)c4)nc3n(C)c2=O)c2cccc(C)c21 [Compound 041] | 0.25 to 0.5 µM | ≤ 0.25 µM
C=CC(=O)N1CCN(c2cc3cnc(Nc4cccc(N5CCS(=O)(=O)CC5)c4)nc3n(C)c2=O)c2cccc(C)c21 [Compound 045] | ≤ 0.25 µM | ≤ 0.25 µM
C=CC(=O)N1CCN(c2cc3cnc(Nc4ccc(CC5CN(S(C)(=O)=O)C5)cc4)nc3n(C)c2=O)c2cccc(C)c21 [Compound 048, 8-methyl-6-(5-methyl-4-prop-2-enoyl-2,3-dihydroquinoxalin-1-yl)-2-[4-[(1-methylsulfonylazetidin-3-yl)methyl]anilino]pyrido[2,3-d]pyrimidin-7-one] | ≤ 0.25 µM | ≤ 0.25 µM
C=CC(=O)N1CCN(c2cc3cnc(Nc4ccc(CN5CCN(C)CC5)cc4)nc3n(C)c2=O)c2cccc(C)c21 [Compound 050] | ≤ 0.25 µM | ≤ 0.25 µM
C=CC(=O)N1CCN(c2cc3cnc(Nc4ccc(N5CCN(C)CC5)cc4)nc3n(C)c2=O)c2cccc(O)c21 [Compound 051, 6-(5-hydroxy-4-prop-2-enoyl-2,3-dihydroquinoxalin-1-yl)-8-methyl-2-[4-(4-methylpiperazin-1-yl)anilino]pyrido[2,3-d]pyrimidin-7-one] | ≤ 0.25 µM | ≤ 0.25 µM
C=CC(=O)N1CCN(c2cc3cnc(Nc4ccc(N5CCN(C)CC5)cc4)nc3n(-c3cccnc3)c2=O)c2cccc(C)c21 [Compound 052, 2-[4-(4-methylpiperazin-1-yl)anilino]-6-(5-methyl-4-prop-2-enoyl-2,3-dihydroquinoxalin-1-yl)-8-(3-pyridyl)pyrido[2,3-d]pyrimidin-7-one] | ≤ 0.25 µM | ≤ 0.25 µM
C=CC(=O)N1CCN(c2cc3cnc(Nc4ccc(CS(=O)(=O)NC)cc4)nc3n(C)c2=O)c2cccc(O)c21 [Compound 053] | 0.25 to 0.5 µM | ≤ 0.25 µM
C=CC(=O)N1CCN(c2c(F)c3cnc(Nc4ccc(N5CCN(C)CC5)cc4)nc3n(C)c2=O)c2cccc(C)c21 [Compound 054, 5-fluoro-8-methyl-2-[4-(4-methylpiperazin-1-yl)anilino]-6-(5-methyl-4-prop-2-enoyl-2,3-dihydroquinoxalin-1-yl)pyrido[2,3-d]pyrimidin-7-one] | ≤ 0.25 µM | ≤ 0.25 µM
C=CC(=O)N1CCN(c2c(F)c3cnc(Nc4ccc(N5CCN(C)CC5)cc4)nc3n(C)c2=O)c2c(F)cc(F)c(C)c21 [Compound 059, 6-(6,8-difluoro-5-methyl-4-prop-2-enoyl-2,3-dihydroquinoxalin-1-yl)-5-fluoro-8-methyl-2-[4-(4-methylpiperazin-1-yl)anilino]pyrido[2,3-d]pyrimidin-7-one] | ≤ 0.25 µM | ≤ 0.25 µM
C=CC(=O)N1CCN(c2cc3cnc(Nc4cc5c(cc4F)CCN(C)C5)nc3n(C)c2=O)c2cccc(C)c21 [Compound 061, 2-[(6-fluoro-2-methyl-3,4-dihydro-1H-isoquinolin-7-yl)amino]-8-methyl-6-(5-methyl-4-prop-2-enoyl-2,3-dihydroquinoxalin-1-yl)pyrido[2,3-d]pyrimidin-7-one] | ≤ 0.25 µM | ≤ 0.25 µM
C=CC(=O)N1CCN(c2cc3cnc(Nc4ccnc(OC)c4)nc3n(C)c2=O)c2cccc(C)c21 [Compound 062] | ≤ 0.25 µM | ≤ 0.25 µM
C=CC(=O)N1CCN(c2cc3cnc(Nc4cc(OC)ncc4C)nc3n(C)c2=O)c2cccc(C)c21 [Compound 063] | 0.5 to 2.5 µM | 0.25 to 0.5 µM
C=CC(=O)Nc1c(O)cccc1Oc1cc2cnc(Nc3ccc(N4CCN(C)CC4)cc3)nc2n(C)c1=O [Compound 064, N-[2-hydroxy-6-[8-methyl-2-[4-(4-methylpiperazin-1-yl)anilino]-7-oxo-pyrido[2,3-d]pyrimidin-6-yl]oxy-phenyl]prop-2-enamide] | 0.25 to 0.5 µM | ≤ 0.25 µM
C=CC(=O)N1CCN(c2cc3cnc(Nc4ccc(N5CCN(C)CC5)cc4)nc3n(C)c2=O)c2cccc(N)c21 [Compound 065, 6-(5-amino-4-prop-2-enoyl-2,3-dihydroquinoxalin-1-yl)-8-methyl-2-[4-(4-methylpiperazin-1-yl)anilino]pyrido[2,3-d]pyrimidin-7-one] | ≤ 0.25 µM | ≤ 0.25 µM

Results, then the molecule that gave them:

GI50 [1] | GI50 [2] | SMILES
≤ 0.25 µM | ≤ 0.25 µM | C=CC(=O)N1CCN(c2cc3cnc(Nc4ccc(OCCN(C)C)cc4)nc3n(C3CC(O)C3)c2=O)c2cccc(C)c21 (stereo not drawn) [Compound 042, 2-[4-[2-(dimethylamino)ethoxy]anilino]-8-(3-hydroxycyclobutyl)-6-(5-methyl-4-prop-2-enoyl-2,3-dihydroquinoxalin-1-yl)pyrido[2,3-d]pyrimidin-7-one]
≤ 0.25 µM | ≤ 0.25 µM | C=CC(=O)N1CCN(c2cc3cnc(Nc4ccc(OCCN(C)C)cc4)nc3n([C@H]3C[C@@H](O)C3)c2=O)c2cccc(C)c21 [Compound 043]
≤ 0.25 µM | ≤ 0.25 µM | C=CC(=O)N1CCN(c2cc3cnc(Nc4ccc(OCCN(C)C)cc4)nc3n([C@H]3C[C@H](O)C3)c2=O)c2cccc(C)c21 [Compound 044]
≤ 0.25 µM | ≤ 0.25 µM | C=CC(=O)N1CCN(c2cc3cnc(Nc4ccc(N5CCN(C)CC5)cc4)nc3n(C3CC(O)C3)c2=O)c2cccc(C)c21 (stereo not drawn) [Compound 046, 8-(3-hydroxycyclobutyl)-2-[4-(4-methylpiperazin-1-yl)anilino]-6-(5-methyl-4-prop-2-enoyl-2,3-dihydroquinoxalin-1-yl)pyrido[2,3-d]pyrimidin-7-one]
≤ 0.25 µM | ≤ 0.25 µM | C=CC(=O)N1CCN(c2cc3cnc(Nc4ccc(OCCN(C)C)cc4)nc3n(CCO)c2=O)c2cccc(C)c21 [Compound 047, 2-[4-[2-(dimethylamino)ethoxy]anilino]-8-(2-hydroxyethyl)-6-(5-methyl-4-prop-2-enoyl-2,3-dihydroquinoxalin-1-yl)pyrido[2,3-d]pyrimidin-7-one]
≤ 0.25 µM | ≤ 0.25 µM | C=CC(=O)N1CCN(c2cc3cnc(Nc4ccc(OC5CN(S(C)(=O)=O)C5)cc4)nc3n(C)c2=O)c2cccc(C)c21 [Compound 049]
≤ 0.25 µM | ≤ 0.25 µM | C=CC(=O)N1CCN(c2cc3cnc(Nc4ccc(OCCN(C)C)cc4)nc3n(C3CC(F)(F)C3)c2=O)c2cccc(C)c21 [Compound 055, 8-(3,3-difluorocyclobutyl)-2-[4-[2-(dimethylamino)ethoxy]anilino]-6-(5-methyl-4-prop-2-enoyl-2,3-dihydroquinoxalin-1-yl)pyrido[2,3-d]pyrimidin-7-one]
≤ 0.25 µM | ≤ 0.25 µM | C=CC(=O)N1CCN(c2cc3cnc(Nc4ccc(OCCN(C)C)cc4)nc3n([C@H]3C[C@@](C)(O)C3)c2=O)c2cccc(C)c21 [Compound 056, 2-[4-[2-(dimethylamino)ethoxy]anilino]-8-((1s,3s)-3-hydroxy-3-methyl-cyclobutyl)-6-(5-methyl-4-prop-2-enoyl-2,3-dihydroquinoxalin-1-yl)pyrido[2,3-d]pyrimidin-7-one]
≤ 0.25 µM | ≤ 0.25 µM | C=CC(=O)N1CCN(c2cc3cnc(Nc4ccc(OCCN(C)C)cc4)nc3n([C@H]3C[C@](C)(O)C3)c2=O)c2cccc(C)c21 [Compound 057, 2-[4-[2-(dimethylamino)ethoxy]anilino]-8-((1r,3r)-3-hydroxy-3-methyl-cyclobutyl)-6-(5-methyl-4-prop-2-enoyl-2,3-dihydroquinoxalin-1-yl)pyrido[2,3-d]pyrimidin-7-one]
≤ 0.25 µM | ≤ 0.25 µM | C=CC(=O)N1CCN(c2cc3cnc(Nc4ccc(OCCN(C)C)cc4)nc3n(CC(C)(C)O)c2=O)c2cccc(C)c21 [Compound 058, 2-[4-[2-(dimethylamino)ethoxy]anilino]-8-(2-hydroxy-2-methyl-propyl)-6-(5-methyl-4-prop-2-enoyl-2,3-dihydroquinoxalin-1-yl)pyrido[2,3-d]pyrimidin-7-one]
0.5 to 2.5 µM | 0.25 to 0.5 µM | C=CC(=O)N1CCN(c2cc3cnc(Nc4ccc(OCCN(C)C)cc4)nc3n(C3COC3)c2=O)c2cccc(C)c21 [Compound 060, 2-[4-[2-(dimethylamino)ethoxy]anilino]-6-(5-methyl-4-prop-2-enoyl-2,3-dihydroquinoxalin-1-yl)-8-(oxetan-3-yl)pyrido[2,3-d]pyrimidin-7-one]
≤ 0.25 µM | ≤ 0.25 µM | C=CC(=O)N1CCN(c2cc3cnc(Nc4ccc(OCCN(C)C)cc4)nc3n(C)c2=O)c2cccc(O)c21 [Compound 066, 2-[4-[2-(dimethylamino)ethoxy]anilino]-6-(5-hydroxy-4-prop-2-enoyl-2,3-dihydroquinoxalin-1-yl)-8-methyl-pyrido[2,3-d]pyrimidin-7-one]

Reference: patent US20250221998A1, “DISCOVERY OF COVALENT EGFR INHIBITOR THROUGH CYSTEINE 775” (Dana-Farber Cancer Institute, Inc., priority 2022, published 2025)
